Reference: US20020002124A1, “Antimicrobial cleansing compositions” (priority 2000, published 2002)

Test: Mildness to the skin (drying, stinging) on topical use
Assay type: in vivo
Conditions: as proton donating agent in the compositions

With `O=C1CCC(C(=O)O)N1` (stereo not shown) [2-pyrrolidone-5 carboxylic acid] the “mildness to the skin and stinging compared with other acids suitable for topical application” value was “milder to the skin and causes less stinging than many other acids”.
